“Also recorded” adds a separate entry of the source.
Assays:
[1] = Relative stability of the crystal forms; type: physicochemical; settings: four kinds of crystals excluding the solvate
[2] = Solubility of the crystal forms in the solvent; type: physicochemical; settings: qualitative, solvent not given
[3] = Storage stability of the crystal forms; type: physicochemical; settings: qualitative
[4] = Absorptivity of the crystal forms; settings: qualitative

Row | Compound | stability (rank order of crystal forms) [1] | solubility in the solvent [2] | storage stability [3] | absorptivity [4] | solubility in the solvent ([2]; hydrate)
1 | Cc1cccc2scc(Cn3c(SCCCC(=O)O)nc4ccccc43)c12 [crystal D, 4-(1-((4-methylbenzothiophen-3-yl)methyl)benzimidazol-2-ylthio)butanoic acid] | becomes lower in the order of crystal D, crystal B, crystal A and crystal E | becomes higher in this order; also recorded: drastically poor | excellent | – | –
2 | Cc1cccc2scc(Cn3c(SCCCC(=O)O)nc4ccccc43)c12 [crystal E, 4-(1-((4-methylbenzothiophen-3-yl)methyl)benzimidazol-2-ylthio)butanoic acid] | becomes lower in the order of crystal D, crystal B, crystal A and crystal E | becomes higher in this order; also recorded: excellent | excellent | comparatively excellent | –
3 | Cc1cccc2scc(Cn3c(SCCCC(=O)O)nc4ccccc43)c12 [crystal B, 4-(1-((4-methylbenzothiophen-3-yl)methyl)benzimidazol-2-ylthio)butanoic acid] | becomes lower in the order of crystal D, crystal B, crystal A and crystal E | becomes higher in this order | excellent | – | –
4 | Cc1cccc2scc(Cn3c(SCCCC(=O)O)nc4ccccc43)c12 [hydrate crystal, 4-(1-((4-methylbenzothiophen-3-yl)methyl)benzimidazol-2-ylthio)butanoic acid hydrate] | – | – | excellent | comparatively excellent | excellent
5 | Cc1cccc2scc(Cn3c(SCCCC(=O)O)nc4ccccc43)c12 [crystal A, 4-(1-((4-methylbenzothiophen-3-yl)methyl)benzimidazol-2-ylthio)butanoic acid] | becomes lower in the order of crystal D, crystal B, crystal A and crystal E | becomes higher in this order; also recorded: excellent | excellent | comparatively excellent | –

From patent publication US7649008B2, “Crystal of benzimidazole derivative and process for producing the same” (priority 2003, dated 2010)
